{
  "source": "patent US11529361B2",
  "about": "“Halogenated salicylanilides for treating Clostridium infections” (UNION therapeutics A/S, priority 2015, dated 2022)",
  "key": {"[1]": {"details": "via the urinary tract or by enzymatic metabolism in the liver; cited from earlier work"}, "[2]": {"details": "cited from earlier work"}, "[3]": {"tested_on": "mice", "details": "p.o.; cited from earlier work"}, "[4]": {"tested_on": "cats", "details": "p.o.; cited from earlier work"}, "[5]": {"tested_on": "C. difficile clinical isolates", "assay": "MIC determination by microbroth dilution per CLSI guideline (Example 1)", "assay_type": "cell-based, Clostridium difficile", "details": "Clostridioides difficile"}, "[6]": {"tested_on": "C. difficile clinical isolates", "details": "C. difficile strain ATCC 700057, reference control; cited from earlier work"}, "[7]": {"tested_on": "C. difficile", "details": "published data (footnote a); cited from earlier work"}},
  "note": "Where two headings read alike, the source gives them in different places.",
  "data": [
    {"smiles": "O=C(Nc1ccc([N+](=O)[O-])cc1Cl)c1cc(Cl)ccc1O", "note": "[Niclosamide, 2′,5-dichloro-4′-nitrosalicylanilide]", "values": [
      {"measurement": "clearance from the bloodstream", "setting": "[1]", "value": "quickly cleared"},
      {"measurement": "solubility in water", "setting": "[2]", "value": "poorly soluble in water"},
      {"measurement": "LD50", "setting": "[3]", "value": "> 5000", "unit": "mg/kg"},
      {"measurement": "LD50", "setting": "[4]", "value": "> 1000", "unit": "mg/kg"},
      {"measurement": "MIC", "setting": "[5]; isolate 7-5085357, read-out: MIC of clinical isolates of C. difficile", "value": 0.125, "unit": "µg/mL"},
      {"measurement": "MIC", "setting": "[5]; isolate 7-5779928, read-out: MIC of clinical isolates of C. difficile", "value": 0.25, "unit": "µg/mL"},
      {"measurement": "MIC", "setting": "[5]; isolate 7-6008526, read-out: MIC of clinical isolates of C. difficile", "value": 0.25, "unit": "µg/mL"},
      {"measurement": "MIC", "setting": "[5]; isolate 7-6011209, read-out: MIC of clinical isolates of C. difficile", "value": 0.06, "unit": "µg/mL"},
      {"measurement": "MIC", "setting": "[5]; isolate 7-6778909, read-out: MIC of clinical isolates of C. difficile", "value": 0.25, "unit": "µg/mL"},
      {"measurement": "MIC", "setting": "[5]; isolate 7-6854508, read-out: MIC of clinical isolates of C. difficile", "value": 0.125, "unit": "µg/mL"},
      {"measurement": "MIC", "setting": "[5]; isolate 7-6870430, read-out: MIC of clinical isolates of C. difficile", "value": 0.25, "unit": "µg/mL"},
      {"measurement": "MIC", "setting": "[5]; isolate 7-7104022, read-out: MIC of clinical isolates of C. difficile", "value": 0.125, "unit": "µg/mL"},
      {"measurement": "MIC", "setting": "[5]; isolate 7-7116411, read-out: MIC of clinical isolates of C. difficile", "value": 0.125, "unit": "µg/mL"},
      {"measurement": "MIC", "setting": "[5]; isolate 7-7124449, read-out: MIC of clinical isolates of C. difficile", "value": 0.125, "unit": "µg/mL"},
      {"measurement": "MIC", "setting": "[5]; isolate 7-7149204, read-out: MIC of clinical isolates of C. difficile", "value": 0.125, "unit": "µg/mL"},
      {"measurement": "MIC", "setting": "[5]; isolate 7-7150288, read-out: MIC of clinical isolates of C. difficile", "value": 0.125, "unit": "µg/mL"},
      {"measurement": "MIC", "setting": "[5]; isolate 7-7150318, read-out: MIC of clinical isolates of C. difficile", "value": 0.125, "unit": "µg/mL"},
      {"measurement": "MIC", "setting": "[5]; isolate 7-7150628, read-out: MIC of clinical isolates of C. difficile", "value": 0.125, "unit": "µg/mL"},
      {"measurement": "MIC", "setting": "[5]; isolate 7-7150997, read-out: MIC of clinical isolates of C. difficile", "value": 0.125, "unit": "µg/mL"},
      {"measurement": "MIC", "setting": "[5]; isolate 7-7151551, read-out: MIC of clinical isolates of C. difficile", "value": 0.25, "unit": "µg/mL"},
      {"measurement": "MIC", "setting": "[5]; isolate 7-7152701, read-out: MIC of clinical isolates of C. difficile", "value": 0.25, "unit": "µg/mL"},
      {"measurement": "MIC", "setting": "[5]; isolate 7-7153872, read-out: MIC of clinical isolates of C. difficile", "value": 0.5, "unit": "µg/mL"},
      {"measurement": "MIC", "setting": "[5]; isolate 7-7154712 (listed twice), read-out: MIC of clinical isolates of C. difficile", "value": 0.25, "unit": "µg/mL"},
      {"measurement": "MIC", "setting": "[5]; isolate 7-7154992, read-out: MIC of clinical isolates of C. difficile", "value": 0.25, "unit": "µg/mL"},
      {"measurement": "MIC", "setting": "[5]; isolate 7-7156197, read-out: MIC of clinical isolates of C. difficile", "value": 0.25, "unit": "µg/mL"},
      {"measurement": "MIC", "setting": "[5]; isolate 7-7200552, read-out: MIC of clinical isolates of C. difficile", "value": 0.25, "unit": "µg/mL"},
      {"measurement": "MIC", "setting": "[5]; isolate 7-7363761, read-out: MIC of clinical isolates of C. difficile", "value": 0.125, "unit": "µg/mL"},
      {"measurement": "MIC", "setting": "[5]; isolate 12055, read-out: MIC of clinical isolates of C. difficile", "value": 0.125, "unit": "µg/mL"},
      {"measurement": "MIC", "setting": "[5]; isolate 12060, read-out: MIC of clinical isolates of C. difficile", "value": 0.125, "unit": "µg/mL"},
      {"measurement": "MIC", "setting": "[5]; isolate 12061, read-out: MIC of clinical isolates of C. difficile", "value": 0.06, "unit": "µg/mL"},
      {"measurement": "MIC", "setting": "[5]; isolate 12062, read-out: MIC of clinical isolates of C. difficile", "value": 0.06, "unit": "µg/mL"},
      {"measurement": "MIC", "setting": "[5]; isolate 12063, read-out: MIC of clinical isolates of C. difficile", "value": 0.06, "unit": "µg/mL"},
      {"measurement": "MIC", "setting": "[5]; isolate 12064, read-out: MIC of clinical isolates of C. difficile", "value": 0.06, "unit": "µg/mL"},
      {"measurement": "MIC", "setting": "[5]; niclosamide, matches Table 2, read-out: Highest MIC observed", "value": 0.5, "unit": "µg/mL"},
      {"measurement": "MIC90", "setting": "[5]; footnote b: data from tables herein", "value": "0.06 to 0.25", "unit": "µg/mL"}
    ]},
    {"smiles": "CN[C@H](CC(C)C)C(=O)N[C@H]1C(=O)N[C@@H](CC(N)=O)C(=O)N[C@H]2C(=O)N[C@H]3C(=O)N[C@H](C(=O)N[C@H](C(=O)O)c4cc(O)cc(O)c4-c4cc3ccc4O)[C@H](O)c3ccc(c(Cl)c3)Oc3cc2cc(c3O[C@@H]2O[C@H](CO)[C@@H](O)[C@H](O)[C@H]2O[C@H]2C[C@](C)(N)[C@H](O)[C@H](C)O2)Oc2ccc(cc2Cl)[C@H]1O", "note": "[Vancomycin]", "values": [
      {"measurement": "expected MIC of reference control strain", "setting": "[6]", "value": 1, "unit": "µg/mL"},
      {"measurement": "Highest MIC observed", "setting": "[7]", "value": "16^a μg/mL"},
      {"measurement": "MIC90", "setting": "[7]", "value": "2^a μg/mL"},
      {"measurement": "MIC", "setting": "[5]; read-out: C. difficile Strain 7-6011209 MIC", "value": 0.125, "unit": "µg/mL"},
      {"measurement": "MIC", "setting": "[5]; read-out: C. difficile Strain 12055 MIC", "value": 0.25, "unit": "µg/mL"}
    ]}
  ]
}
